Test results as given in patent publication EP2177209A1, “Intravenous solutions and uses” (priority 2008, dated 2010).
≈ marks a conversion by molar mass, not a printed value.

Experiments:
Neisseria gonorrhoeae = conditions: 20 library strains
Listeria monocytogenes = conditions: 20 library strains
[1] = system: Streptococcus constellatus
Pseudomonas aeruginosa = conditions: 50 strains
[2] = system: methicillin-susceptible Staphylococcus epidermidis (MSSE)
Moraxella catarrhalis = conditions: 50 strains
Neisseria meningitidis = conditions: 20 library strains
Helicobacter pylori = conditions: 5 library strains
Haemophilus influenzae = conditions: 70 strains
Escherichia coli = conditions: 50 strains
Bacteroides fragilis = conditions: 20 library strains
Clostridium difficile = conditions: 10 library strains
[3] = system: methicillin-susceptible Staphylococcus aureus (MSSA)
[4] = system: methicillin-resistant Staphylococcus epidermidis (MRSE)
Clostridium perfringens = conditions: 10 library strains
[5] = system: methicillin-resistant Staphylococcus aureus (MRSA)

CCCCCCCCCC(=O)N[C@@H](Cc1c[nH]c2ccccc12)C(=O)N[C@H](CC(N)=O)C(=O)N[C@@H](CC(=O)O)C(=O)N[C@@H]1C(=O)NCC(=O)N[C@@H](CCCN)C(=O)N[C@@H](CC(=O)O)C(=O)N[C@H](C)C(=O)N[C@@H](CC(=O)O)C(=O)NCC(=O)N[C@H](CO)C(=O)N[C@@H]([C@H](C)CC(=O)O)C(=O)N[C@@H](CC(=O)c2ccccc2N)C(=O)O[C@@H]1C [Daptomycin, daptomycin]
MIC 50% (Neisseria gonorrhoeae): ≥128 µg/mL | MIC 90% (Neisseria gonorrhoeae): ≥128 µg/mL | MIC MIN (Neisseria gonorrhoeae): 64 µg/mL (≈ 39.5 µM) | MIC 50% (Listeria monocytogenes): 1 µg/mL (≈ 0.617 µM) | MIC 90% (Listeria monocytogenes): 2 µg/mL (≈ 1.23 µM) | MIC MAX (Listeria monocytogenes): ≥128 µg/mL | MIC MIN (Listeria monocytogenes): 0.015 µg/mL (≈ 0.00926 µM) | MIC 90% (Streptococcus oralis): 2 µg/mL (≈ 1.23 µM) | MIC MAX (Streptococcus oralis): 2 µg/mL (≈ 1.23 µM) | MIC MIN (Streptococcus oralis): 0.25 µg/mL (≈ 0.154 µM) | MIC 50% (Streptococcus pneumoniae): 0.12 µg/mL (≈ 0.074 µM) | MIC 90% (Streptococcus pneumoniae): 0.5 µg/mL (≈ 0.309 µM) | MIC MAX (Streptococcus pneumoniae): 0.5 µg/mL (≈ 0.309 µM) | MIC MIN (Streptococcus pneumoniae): ≤0.03 µg/mL | MIC 50% (Group C Streptococci): 0.12 µg/mL (≈ 0.074 µM) | MIC 90% (Group C Streptococci): 0.25 µg/mL (≈ 0.154 µM) | MIC MAX (Group C Streptococci): 0.5 µg/mL (≈ 0.309 µM) | MIC MIN (Group C Streptococci): ≤0.03 µg/mL | MIC 50% (Group B Streptococci): 0.5 µg/mL (≈ 0.309 µM) | MIC 90% (Group B Streptococci): 1 µg/mL (≈ 0.617 µM) | MIC MAX (Group B Streptococci): 1 µg/mL (≈ 0.617 µM) | MIC MIN (Group B Streptococci): 0.12 µg/mL (≈ 0.074 µM) | MIC 50% (Group A Streptococci): ≤0.03 µg/mL | MIC 90 (Group A Streptococci): 0.06 µg/mL (≈ 0.037 µM) | MIC MAX (Group A Streptococci): 0.12 µg/mL (≈ 0.074 µM) | MIC MIN (Group A Streptococci): ≤0.03 µg/mL | MIC 50% [1]: 0.5 µg/mL (≈ 0.309 µM) | MIC 90% [1]: 0.5 µg/mL (≈ 0.309 µM) | MIC MAX [1]: 0.5 µg/mL (≈ 0.309 µM) | MIC MIN [1]: 0.12 µg/mL (≈ 0.074 µM) | MIC 50% (Pseudomonas aeruginosa): ≥128 µg/mL | MIC 90% (Pseudomonas aeruginosa): ≥128 µg/mL | MIC MAX (Pseudomonas aeruginosa): ≥128 µg/mL | MIC MIN (Pseudomonas aeruginosa): ≥128 µg/mL | MIC 50% [2]: 0.25 µg/mL (≈ 0.154 µM) | MIC 90% [2]: 0.5 µg/mL (≈ 0.309 µM) | MIC MAX [2]: 1 µg/mL (≈ 0.617 µM) | MIC MIN [2]: 0.06 µg/mL (≈ 0.037 µM) | MIC 50% (Moraxella catarrhalis): 8 µg/mL (≈ 4.94 µM) | MIC 90% (Moraxella catarrhalis): 16 µg/mL (≈ 9.87 µM) | MIC MAX (Moraxella catarrhalis): ≥128 µg/mL | MIC MIN (Moraxella catarrhalis): 2 µg/mL (≈ 1.23 µM) | MIC 50% (Neisseria meningitidis): 64 µg/mL (≈ 39.5 µM) | MIC MAX (Neisseria meningitidis): ≥128 µg/mL | MIC MIN (Neisseria meningitidis): 8 µg/mL (≈ 4.94 µM) | MIC 50% (Streptococcus bovis): 0.06 µg/mL (≈ 0.037 µM) | MIC 90% (Streptococcus bovis): 0.12 µg/mL (≈ 0.074 µM) | MIC MAX (Streptococcus bovis): 0.12 µg/mL (≈ 0.074 µM) | MIC MIN (Streptococcus bovis): ≤0.03 µg/mL | MIC 50% (Helicobacter pylori): ≥128 µg/mL | MIC 90% (Helicobacter pylori): ≥128 µg/mL | MIC MAX (Helicobacter pylori): ≥128 µg/mL | MIC MIN (Helicobacter pylori): ≥128 µg/mL | MIC 50% (Haemophilus influenzae): ≥128 µg/mL | MIC 90% (Haemophilus influenzae): ≥128 µg/mL | MIC MAX (Haemophilus influenzae): ≥128 µg/mL | MIC MIN (Haemophilus influenzae): ≥128 µg/mL | MIC 50% (Escherichia coli): ≥128 µg/mL | MIC 90% (Escherichia coli): ≥128 µg/mL | MIC MAX (Escherichia coli): ≥128 µg/mL | MIC MIN (Escherichia coli): ≥128 µg/mL | MIC 50% (Streptococcus sanguis): 0.25 µg/mL (≈ 0.154 µM) | MIC 90% (Streptococcus sanguis): 0.5 µg/mL (≈ 0.309 µM) | MIC 50% (Bacteroides fragilis): ≥128 µg/mL | MIC 90% (Bacteroides fragilis): ≥128 µg/mL | MIC MAX (Bacteroides fragilis): ≥128 µg/mL | MIC MIN (Bacteroides fragilis): ≥128 µg/mL | MIC 50% (Clostridium difficile): 0.25 µg/mL (≈ 0.154 µM) | MIC 90% (Clostridium difficile): 2 µg/mL (≈ 1.23 µM) | MIC MAX (Clostridium difficile): 2 µg/mL (≈ 1.23 µM) | MIC MIN (Clostridium difficile): 0.12 µg/mL (≈ 0.074 µM) | MIC 50% (Streptococcus mitis): 0.5 µg/mL (≈ 0.309 µM) | MIC 90% (Streptococcus mitis): 1 µg/mL (≈ 0.617 µM) | MIC MAX (Streptococcus mitis): 1 µg/mL (≈ 0.617 µM) | MIC MIN (Streptococcus mitis): 0.12 µg/mL (≈ 0.074 µM) | MIC 50% [3]: 0.25 µg/mL (≈ 0.154 µM) | MIC 90% [3]: 0.25 µg/mL (≈ 0.154 µM) | MIC MAX [3]: 0.5 µg/mL (≈ 0.309 µM) | MIC MIN [3]: 0.06 µg/mL (≈ 0.037 µM) | MIC 50% [4]: 0.25 µg/mL (≈ 0.154 µM) | MIC 90% [4]: 0.5 µg/mL (≈ 0.309 µM) | MIC MAX [4]: 0.5 µg/mL (≈ 0.309 µM) | MIC MIN [4]: 0.06 µg/mL (≈ 0.037 µM) | MIC 50% (Clostridium perfringens): 1 µg/mL (≈ 0.617 µM) | MIC 50% [5]: 0.25 µg/mL (≈ 0.154 µM) | MIC 90% [5]: 0.5 µg/mL (≈ 0.309 µM) | MIC MAX [5]: 1 µg/mL (≈ 0.617 µM) | MIC MIN [5]: 0.12 µg/mL (≈ 0.074 µM)
